Assay results taken from EP0450480B1, “Somatostatin Analogues” (The Administrators of The Tulane Educational Fund, priority 1990, dated 1991).
Marks after values point to notes of the source that are not given here. Square brackets hold non-standard residues; d marks the D form. Ends that are not written are not given here.

Legend:
[1] = test system: human pancreatic MiaPaCa cancer cell line; test: Inhibition of 3H-thymidine incorporation into DNA, MiaPaCa cells; assay type: cell-based
Experimental: The ability of peptides of Formula I to inhibit incorporation of [³H]thymidine into DNA of monolayer cultures the small cell lung cancer line H-69 and MiaPaCa cell line is assayed as described by Kern et al. (Cancer Res., 45, 5436 (1985).
1x10⁵ cells are plated with DME media containing 10% fetal calf serum (FCS) on Day 0. After 24 hours media is removed and replaced with DME media without serum and incubated at 37°C for 2 days. Media was then removed and replaced with DME media containing 5% FCS with or without somatostatin analog. Media with peptides was changed daily for 4 days. On day 4, 1 »Ci ³H-thymidine added and incubated an additional 17 hrs. Media is then removed and cells recovered by trypsination. DNA extracted with 1 N perchloric acid and the radioactivity measured.

MiaPaCa cells = test: Growth of MiaPaCa cells measured by cell counts; assay type: cell-based, human
[2] = in vivo; cited from earlier work
GH release = conditions: relative to somatostatin; cited from earlier work
[3] = test system: human mammary cell line MDA-MB-231; conditions: at 10 »g dose; cited from earlier work

## N[C@@H](Cc1ccc(N(CCCl)CCCl)cc1)C(=O)O [Melphalan, 4-[bis{2-chloroethyl}amino]-phenylalanine]
[1]; Dose 10⁻⁶ M
  % inhibition of ³H-thymidine incorp.: 20%
[1]; Dose 10⁻⁷ M
  % inhibition of ³H-thymidine incorp.: 18%
MiaPaCa cells; Dose 10⁻⁶ M
  % Decrease in cell number: 29** %
MiaPaCa cells; Dose 10⁻⁷ M
  % Decrease in cell number: 1%
MiaPaCa cells; Dose 10⁻⁸ M
  % Decrease in cell number: 1%

## C[C@H](N)C(=O)NCC(=O)N[C@H]1CSSC[C@@H](C(=O)O)NC(=O)[C@H](CO)NC(=O)[C@H]([C@@H](C)O)NC(=O)[C@H](Cc2ccccc2)NC(=O)[C@H]([C@@H](C)O)NC(=O)[C@H](CCCCN)NC(=O)[C@H](Cc2c[nH]c3ccccc23)NC(=O)[C@H](Cc2ccccc2)NC(=O)[C@H](Cc2ccccc2)NC(=O)[C@H](CC(N)=O)NC(=O)[C@H](CCCCN)NC1=O [SS-14]
[2]
  half-life in circulation: about 3 min

## D-Phe-Cys-Tyr-D-Trp-Lys-Val-Cys-Thr-NH₂
GH release
  times more potent than somatostatin in test for inhibition of GH release: more than 100 times

## [dF]CY[dW]KVCW-NH2 (cysteine pairing not given here)
GH release
  times more potent than somatostatin in test for inhibition of GH release: more than 100 times

## pGlu-His-Trp-Ser-Tyr-D-Lys[Ahx-A₂bu(SAL)₂(Cu)]-Leu-Arg-Pro-Gly-NH₂
[3]
  inhibits the [³H]thymidine incorporation into DNA: 87%
